Measured values reported in a compilation of properties of binary mixtures (doi:10.1016/j.molliq.2017.04.129).

Assay: xn = mol fraction of the nth substance listed
Settings: 100 kPa

COCCOCCO + CCCC[n+]1ccn(C)c1.O=S(=O)([O-])C(F)(F)F
speed of sound [m/s]
Settings	x2 = 0	x2 = 0.1	x2 = 0.2056	x2 = 0.3064	x2 = 0.3986	x2 = 0.4904	x2 = 0.5981	x2 = 0.6945	x2 = 0.7795	x2 = 0.9015
298.15 K	1415.8	1423.6	1420.5	1415.5	1410.7	1406.3	–	1398.8	1396.8	1394.5
303.15 K	–	1408.2	1406.1	1401.6	1397.5	–	1390	1386.9	–	1383.3
308.15 K	–	1392.4	1391.5	1387.8	1384.4	1381	1378	1375.4	1374	1372
313.15 K	1366.4	1376.8	1376.9	–	1371.3	1368.4	–	–	1362.6	1360.9
318.15 K	–	–	–	–	–	1356	1354	1352.2	1351.2	1349.9
323.15 K	1333.4	1345.6	1348	1346.9	1345.5	1343.6	–	1340.7	–	1338.9

CCCC[n+]1ccn(C)c1.O=S(=O)([O-])C(F)(F)F + COCCOCCO
x1 = 1
Settings	speed of sound [m/s]
298.15 K	1392.8
308.15 K	1370.6
313.15 K	1359.6
